Data as given in patent US20250296971A1, “GASTRIC INHIBITORY PEPTIDE RECEPTOR LIGANDS” (priority 2021, published 2025).
*1 amine or outer side, *2 acyl side, *3 side chain or, on linkers, in order; H or OH if unused. Where a SMILES comes first, the peptide text is derived from it. Bridges are numbered along the chain shown (N, C = ends). [ ]: non-standard residue; d: D form. The star is where a group is joined. X5 = NC(=O)[C@H](CCCCNC(=O)CN1CCN(CC(=O)O)CCN(CC(=O)O)CCN(CC(=O)O)CC1)NC(=O)CCC(=O)NCCCOCCOCCOCCCN*; DOTA(Lu) = O=C1CN2CCN3CCN(CC(=O)*)CCN(CC2)CC(=O)[O][Lu]([O]1)[O]C(=O)C3; X3 = O=C(O)CN1CCN(CC(=O)O)CCN(CC(=O)NCCCOCCOCCOCCCN*)CCN(CC(=O)O)CC1; NH(1-deoxy-D-glucityl) = OC[C@@H](O)[C@@H](O)[C@H](O)[C@@H](O)CN*; DOTA = O=C(O)CN1CCN(CC(=O)O)CCN(CC(=O)*)CCN(CC(=O)O)CC1; Trp(5-Cl) = N[C@@H](Cc1c[nH]c2ccc(Cl)cc12)C(=O)O; Phe(3,5-Cl2) = N[C@@H](Cc1cc(Cl)cc(Cl)c1)C(=O)O; Propanoyl(3-(4-F-phenyl)) = O=C(CCc1ccc(F)cc1)*; Pyridine(2,6-diCH2) = c1cc(C[*:1])nc(C[*:2])c1; Oic = O=C(O)[C@@H]1C[C@@H]2CCCC[C@@H]2N1; Pro(4R-NH2) = N[C@H]1CN[C@H](C(=O)O)C1; 1Nal = N[C@@H](Cc1cccc2ccccc12)C(=O)O; Pro(3S-OH) = O=C(O)[C@H]1NCC[C@@H]1O; mXylylene = c1cc(C[*:1])cc(C[*:2])c1; Glutaryl = O=C(CCCC(=O)[*:2])[*:1]; X7 = c1cc(CSCCN[*:2])cc(C[*:1])c1; Hyp = O=C(O)[C@@H]1C[C@@H](O)CN1; X1 = O=C(CN1CCC(N[*:1])CC1)[*:2]; Suc = O=C(CCC(=O)[*:2])[*:1]; Thp = NC1(C(=O)O)CCOCC1; Aib = CC(C)(N)C(=O)O

molecular target: T1, GIPR (CHO-K1-hGIPR cells) (Homo sapiens, UniProt P48546); assay: FACS binding assay; conditions: competition with 20 nM GIP-057, 4° C. for 1 hour, read-out: pIC50 Category (converted)
T1 construct: host or cells: CHO-K1
T1 sequence (P48546 22-466): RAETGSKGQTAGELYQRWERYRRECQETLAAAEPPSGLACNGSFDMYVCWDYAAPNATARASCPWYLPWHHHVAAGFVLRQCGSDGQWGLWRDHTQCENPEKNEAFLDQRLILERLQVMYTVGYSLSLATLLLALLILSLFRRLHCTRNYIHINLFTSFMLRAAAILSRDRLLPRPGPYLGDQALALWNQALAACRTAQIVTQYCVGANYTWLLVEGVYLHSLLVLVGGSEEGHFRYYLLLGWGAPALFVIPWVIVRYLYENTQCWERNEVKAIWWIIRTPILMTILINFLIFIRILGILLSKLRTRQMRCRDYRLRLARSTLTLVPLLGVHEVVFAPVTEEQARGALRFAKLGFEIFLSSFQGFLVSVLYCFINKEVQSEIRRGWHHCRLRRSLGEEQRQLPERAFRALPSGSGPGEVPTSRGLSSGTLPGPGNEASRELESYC
Outline: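 Peptide binding read by flow cytometry as APC-channel median fluorescence, fitted with a four-parameter logistic to yield EC50 or IC50. Cells were hGIPR-transfected CHO-K1 in PBS with 1% FCS, detected with 1 μg/mL APC-streptavidin, 30 min on ice.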

First: CC[C@H](C)[C@@H]1NC(=O)[C@H](CC(C)C)NC(=O)C(C)(C)NC(=O)[C@@H](NC(=O)[C@H](CC(C)C)NC(=O)[C@H](CCC(=O)O)NC(=O)[C@@H]2C[C@@H]3CCCC[C@@H]3N2C(=O)[C@H](Cc2cccc3ccccc23)NC(=O)[C@H](Cc2c[nH]c3ccccc23)NC(=O)[C@H](CC(=O)O)NC(C)=O)CSCc2cccc(c2)CSC[C@@H](C(N)=O)NC1=O [GIP-252, Ac-Asp-Trp-1Ni-Pip-Glu-Leu-[Cys(3MeBn)-Aib-Leu-Ile-Cys]-NH2] (Ac-DW[1Nal][Oic]ELC[Aib]LIC-NH2; linker 7-11 via mXylylene)
Second: CC[C@H](C)[C@@H]1NC(=O)[C@H](CC(C)C)NC(=O)[C@H](C)NC(=O)[C@@H](NC(=O)[C@H](CC(C)C)NC(=O)[C@H](CCC(=O)O)NC(=O)[C@H]2CCCN2C(=O)[C@H](Cc2c[nH]c3ccccc23)NC(=O)[C@H](Cc2c[nH]c3ccccc23)NC(=O)[C@H](CC(=O)O)NC(=O)[C@H](Cc2ccc(O)cc2)NC(=O)[C@@H](N)CCSC)CSCc2cccc(c2)CSC[C@@H](C(N)=O)NC1=O [GIP-328, H-Met-Tyr-Asp-Trp-Trp-pro-Glu-Leu-[Cys(3MeBn)-Ala-Leu-Ile-Cys]-NH2] (H-MYDWW[dP]ELCALIC-NH2; linker 9-13 via mXylylene)
The IC50 of the first is lower: 10 to 79.4 nM for the first, over 1000 nM for the second.

`CC[C@H](C)[C@@H]1NC(=O)[C@H](CC(C)C)NC(=O)C2(CCOCC2)NC(=O)[C@@H](NC(=O)[C@@H](CC(C)C)NC(=O)[C@H](CCC(=O)O)NC(=O)[C@@H]2C[C@@H](O)CN2C(=O)[C@H](Cc2cc(Cl)cc(Cl)c2)NC(=O)[C@H](Cc2c[nH]c3ccccc23)NC(=O)[C@H](CC(=O)O)NC(C)=O)CSCc2cccc(n2)CSC[C@@H](C(N)=O)NC1=O` [GIP-264, Ac-Asp-Trp-Egn-Hyp-Glu-leu-[Cys(2Lut)-Thp-Leu-Ile-Cys]-NH2] (Ac-DW[Phe(3,5-Cl2)][Hyp]E[dL]C[Thp]LIC-NH2; linker 7-11 via Pyridine(2,6-diCH2)) and `CC[C@H](C)[C@@H]1NC(=O)[C@H](CC(C)C)NC(=O)C2(CCOCC2)NC(=O)[C@@H](NC(=O)[C@@H](CC(C)C)NC(=O)[C@H](Cc2c[nH]c3ccccc23)NC(=O)[C@@H]2C[C@@H](O)CN2C(=O)[C@H](Cc2c[nH]c3ccc(Cl)cc23)NC(=O)[C@H](Cc2c[nH]c3ccccc23)NC(=O)[C@H](CC(=O)O)NC(C)=O)CSCc2cccc(n2)CSC[C@@H](C(N)=O)NC1=O` [GIP-397, Ac-Asp-Trp-5Clw-Hyp-Trp-leu-[Cys(2Lut)-Thp-Leu-Ile-Cys]-NH2] (Ac-DW[Trp(5-Cl)][Hyp]W[dL]C[Thp]LIC-NH2; linker 7-11 via Pyridine(2,6-diCH2)) fall in the same range of IC50: 10 to 79.4 nM for the first, 10 to 79.4 nM for the second.

`CC[C@H](C)[C@@H]1NC(=O)[C@H](CC(C)C)NC(=O)[C@@H](C)NC(=O)[C@@H](NC(=O)[C@@H](CC(C)C)NC(=O)[C@H](CCC(=O)O)NC(=O)[C@@H]2CCCN2C(=O)[C@H](Cc2c[nH]c3ccccc23)NC(=O)[C@H](Cc2c[nH]c3ccccc23)NC(=O)CCC(=O)O)CSCc2cccc(c2)CSC[C@@H](C(=O)NCCCOCCOCCOCCCNC(=O)CCC(=O)N[C@@H](CCCCNC(=O)CN2CCN(CC(=O)O)CCN(CC(=O)O)CCN(CC(=O)O)CC2)C(N)=O)NC1=O` [GIP-288, HO-Succinyl-Trp-Trp-Pro-Glu-leu-[Cys(3MeBn)-ala-Leu-Ile-Cys]-Ttds-Lys(DOTA)-NH2] (Suc-WWPE[dL]C[dA]LIC-X5; linker 6-10 via mXylylene) gave an IC50 of over 1000 nM.

same assay, conditions: competition with 20 nM GIP-057, 4° C., 1 hour, read-out: pIC50 Category (converted)

First: CC[C@H](C)[C@@H]1NC(=O)[C@H](CC(C)C)NC(=O)C(C)(C)NC(=O)[C@@H](NC(=O)[C@@H](CC(C)C)NC(=O)[C@H](CCC(=O)O)NC(=O)[C@@H]2CCCN2C(=O)[C@H](Cc2c[nH]c3ccccc23)NC(=O)[C@H](Cc2c[nH]c3ccccc23)NC(=O)[C@H](CC(=O)O)NC(=O)CCc2ccc(F)cc2)CSCc2cccc(c2)CSC[C@@H](C(=O)NCCCOCCOCCOCCCNC(=O)CCC(=O)N[C@@H](CCCCNC(=O)CN2CCN(CC(=O)O)CCN(CC(=O)O)CCN(CC(=O)O)CC2)C(N)=O)NC1=O [GIP-136, 4FPhp-Asp-Trp-Trp-Pro-Glu-leu-[Cys(3MeBn)-Aib-Leu-Ile-Cys]-Ttds-Lys(DOTA)-NH2] ({Propanoyl(3-(4-F-phenyl))}-DWWPE[dL]C[Aib]LIC-X5; linker 7-11 via mXylylene)
Second: CC[C@H](C)[C@@H]1NC(=O)[C@H](CC(C)C)NC(=O)C(C)(C)NC(=O)[C@@H](NC(=O)[C@@H](CC(C)C)NC(=O)[C@H](CCC(=O)O)NC(=O)[C@@H]2[C@@H](O)CCN2C(=O)[C@H](Cc2c[nH]c3ccc(Cl)cc23)NC(=O)[C@H](Cc2c[nH]c3ccccc23)NC(=O)[C@H](CC(=O)O)NC(=O)CCC(=O)NCCCOCCOCCOCCCNC(=O)CN2CCN(CC(=O)O)CCN(CC(=O)O)CCN(CC(=O)O)CC2)CSCc2cccc(c2)CSCCNC1=O [GIP-102, DOTA-Ttds-Asp-Trp-5Clw-H3p-Glu-leu-[Cys(3MeBn)-Aib-Leu-Ile-AET]] ({X3-Suc}-DW[Trp(5-Cl)][Pro(3S-OH)]E[dL]C[Aib]LI; linker 7-C via X7)
The IC50 of the first is higher: 10 to 79.4 nM for the first, under 10 nM for the second.

With `CC[C@H](C)[C@@H]1NC(=O)[C@H](CC(C)C)NC(=O)[C@@H](CCCCNC(=O)CN2CCN(CC(=O)O)CCN(CC(=O)O)CCN(CC(=O)O)CC2)NC(=O)[C@@H](NC(=O)[C@@H](CC(C)C)NC(=O)[C@H](CCC(=O)O)NC(=O)[C@@H]2C[C@@H](N)CN2C(=O)[C@H](Cc2c[nH]c3ccc(Cl)cc23)NC(=O)[C@H](Cc2c[nH]c3ccccc23)NC(=O)[C@H](CC(=O)O)NC(=O)CCCC(=O)NC[C@H](O)[C@@H](O)[C@H](O)[C@H](O)CO)CSCc2cccc(n2)CSC[C@@H](C(=O)NC2CCN(CC(=O)N[C@H](CCC(=O)NC[C@H](O)[C@@H](O)[C@H](O)[C@H](O)CO)C(N)=O)CC2)NC1=O` [GIP-025, AGLU-Glutar-Asp-Trp-5Clw-Tap-Glu-leu-[Cys(2Lut)-lys(DOTA)-Leu-Ile-Cys]-APAc-glu(AGLU)-NH2] ({NH(1-deoxy-D-glucityl)-Glutaryl}-DW[Trp(5-Cl)][Pro(4R-NH2)]E[dL]C[dK](DOTA)LIC[X1][dE](NH(1-deoxy-D-glucityl))-NH2; linker 7-11 via Pyridine(2,6-diCH2)) the IC50 was 10 to 79.4 nM.

same assay, conditions: pIC50 Category, competition with 20 nM GIP-057, 4° C., 1 hour

`CC[C@H](C)[C@@H]1NC(=O)[C@H](CC(C)C)NC(=O)C2(CCOCC2)NC(=O)[C@@H](NC(=O)[C@@H](CC(C)C)NC(=O)[C@H](CCC(=O)O)NC(=O)[C@@H]2C[C@@H](O)CN2C(=O)[C@H](Cc2c[nH]c3ccc(Cl)cc23)NC(=O)[C@H](Cc2c[nH]c3ccccc23)NC(=O)[C@H](CC(=O)O)NC(=O)CN2CCC(NC(=O)[C@@H](CCC(=O)NC[C@H](O)[C@@H](O)[C@H](O)[C@H](O)CO)NC(=O)CN3CCN4CCN5CCN(CC3)CC(=O)[O][Lu]([O]C(=O)C4)[O]C(=O)C5)CC2)CSCc2cccc(n2)CSC[C@@H](C(=O)NC2CCN(CC(=O)N[C@H](CCC(=O)NC[C@H](O)[C@@H](O)[C@H](O)[C@H](O)CO)C(N)=O)CC2)NC1=O` [GIP-062, LuDOTA-glu(AGLU)-APAc-Asp-Trp-5Clw-Hyp-Glu-leu-[Cys(2Lut)-Thp-Leu-Ile-Cys]-APAc-glu(AGLU)-NH2] ({DOTA(Lu)}-[dE](NH(1-deoxy-D-glucityl))[X1]DW[Trp(5-Cl)][Hyp]E[dL]C[Thp]LIC[X1][dE](NH(1-deoxy-D-glucityl))-NH2; linker 9-13 via Pyridine(2,6-diCH2)) showed an IC50 of under 10 nM.
